Laboratory results taken from patent US20100015147A1 (priority 2001, published 2010).
“Also recorded” adds a separate entry of the source. Read-outs that look alike come from different tables or passages of the source.

Experiments:
[1] = system: mammalian neuraminidase; settings: cultures of human macrophagic cells; cited from earlier work
[2] = system: Swiss-Webster (SW) mice; type: in vivo
[3] = system: Swiss-Webster (SW) mice; test: Hot-water-immersion tail-flick antinociception assays with neuraminidase inhibitors (temperature not given); type: in vivo
[4] = system: Swiss-Webster (SW) mice; type: in vivo; settings: for effect on low-dose κ-opioid-induced hyperalgesia, compared with CTX-B cotreatment: 10 ng/kg U-50,488H plus ultralow (pg/kg) dose of antagonist
[5] = system: Swiss-Webster (SW) mice; type: in vivo; remark: listed apart in the source
[6] = system: male dental-pain patients; settings: cited from earlier work
[7] = system: Swiss-Webster (SW) mice; settings: low doses in naïve mice; cited from earlier work
[8] = system: mice; settings: cited from earlier work

## O=S(=O)([O-])[O-].[Mg+2] [MgSO4]
[1]
  effect on mammalian neuraminidase activity: potent inhibitory effects on mammalian neuraminidase activity

## O=S(=O)([O-])[O-].[Na+].[Na+] [Na2SO4]
[2]; mouse, in vivo
  NLX-precipitated withdrawal hyperalgesia: prevented NLX-precipitated withdrawal hyperalgesia
[1]
  effect on mammalian neuraminidase activity: potent inhibitory effects on mammalian neuraminidase activity
[3]; 3 μg/kg morphine plus 10 mg/kg Na2SO4
  results of antinociception assays compared with oseltamivir: surprisingly similar
[3]; 10 mg/kg Na2SO4 plus 3 mg/kg morphine, daily injections for 5 days
  development of tolerance: prevented development of tolerance during daily injections for 5 days
[3]; chronic 10 mg/kg Na2SO4 plus 3 mg/kg morphine
  effect on morphine analgesia: enhanced analgesia

## CN1CC[C@]23c4c5ccc(O)c4O[C@H]2[C@@H](O)C=C[C@H]3[C@H]1C5 [morphine]
[4]; 0.1 μg/kg morphine s.c. alone, control groups
  effect on tail-flick latency, opioid alone: marked hyperalgesia; also recorded: characteristic hyperalgesia
[4]; 1 μg/kg morphine s.c. alone, 52° C., male mice
  duration of decreases in tail-flick latencies (hyperalgesia) after drug injection: 4 to 5 h
[4]; 1 mg/kg morphine s.c. alone, control group of female mice
  time after opioid injection to hyperalgesia: ≤ 2 h
[4]; ca. 1 μg/kg morphine s.c. alone, 52° C.
  decreases in tail-flick latencies: 1 to 2 s
[3]; morphine-only group, 5 days (FIG. 9)
  response after chronic morphine only: marked hyperalgesia
[5]; 3 mg/kg morphine alone, 55° C.
  time course of antinociceptive effect, morphine alone: sharply decreased after the first-hour peak
[5]; daily 3 mg/kg morphine alone, 5 days
  analgesic effects after chronic morphine alone (tolerance): sharply decreased by 5 days

## Oc1ccc2c3c1O[C@H]1[C@@H](O)CC[C@@]4(O)[C@@H](C2)N(CC2CCC2)CC[C@]314 [nalbuphine]
[6]; nalbuphine 5 mg i.v.
  effect on pain within 1 h after injection: hyperalgesia

## C=CCN1CC[C@]23c4c5ccc(O)c4O[C@H]2C(=O)CC[C@@]3(O)[C@H]1C5 [naloxone]
[6]; cotreatment with 0.5 mg naloxone
  effect on nalbuphine-induced hyperalgesia: blocked
[2]; chronic morphine (e.g., 10 mg/kg for 5-6 days), withdrawal, 10 μg/kg NLX
  duration of NLX-evoked hyperalgesic response: more than 5 h
[7]
  effect on baseline tail-flick latency: did not alter the baseline tail-flick latency

## O=C1CC[C@@]2(O)[C@H]3Cc4ccc(O)c5c4[C@@]2(CCN3CC2CC2)[C@H]1O5 [naltrexone]
[4]
  effect on low-dose κ-opioid-induced hyperalgesia, compared with CTX-B cotreatment: similar
[4]; listed as NTX
  effect on low-dose κ-opioid-induced hyperalgesia, compared with CTX-B cotreatment: comparable; also recorded: selectively blocked
[4]; 1 μg/kg morphine plus 1 pg/kg (ultralow-dose) naltrexone
  block of low-dose morphine hyperalgesia and unmasking of analgesia, compared with CTXB cotreatment: similar
[7]
  effect on baseline tail-flick latency: did not alter the baseline tail-flick latency

## Oc1ccc2c3c1O[C@H]1c4[nH]c5c(c4C[C@@]4(O)[C@@H](C2)N(CC2CC2)CC[C@]314)C[C@@]1(O)[C@H]2Cc3ccc(O)c4c3[C@@]1(CCN2CC1CC1)[C@H]5O4 [nor-binaltorphimine]
[4]
  effect on low-dose κ-opioid-induced hyperalgesia, compared with CTX-B cotreatment: comparable; also recorded: selectively blocked; also recorded: similar

## CCOC(=O)C1=C[C@@H](OC(CC)CC)[C@H](NC(C)=O)[C@@H](N)C1 [oseltamivir]
[2]; chronic cotreatment with morphine plus oseltamivir
  NLX-precipitated withdrawal hyperalgesia: prevented development of NLX-precipitated withdrawal hyperalgesia
[3]; FIG. 10
  time to development of morphine tolerance after withdrawal of oseltamivir: ≤ 1 days
[3]; chronic cotreatment with morphine plus oseltamivir (FIGS. 8 and 9)
  development of opioid tolerance: attenuates development of opioid tolerance
[3]; chronic oseltamivir plus morphine for 3 days (FIG. 8)
  development of opioid tolerance: prevents development of opioid tolerance
[3]; cotreatment with oseltamivir, male mice (FIG. 7)
  effect on analgesic potency of higher doses of morphine: markedly enhances the analgesic potency
[3]; morphine plus oseltamivir s.c., male mice (FIG. 6)
  effect on low-dose morphine-induced hyperalgesia: selectively blocks; also recorded: blocks low-dose, morphine-induced hyperalgesia
[3]; oseltamivir added for 1 day (FIG. 10)
  effect of adding oseltamivir to chronic morphine-tolerant mice: restores prominent analgesia
[3]; oseltamivir plus morphine, 5 days (FIG. 9)
  morphine analgesia after chronic cotreatment: still show prominent morphine (Mor) analgesia

## dynorphin
[8]; dynorphin 0.5 μg/kg s.c., tested at 90 min post-injection
  effect on tail-flick latency: thermal hyperalgesia
[8]; dynorphin 50 μg/kg
  effect on tail-flick latency: analgesia
